# Test results as given in patent US11572548B2, “Reaction mixture for synthesis of alpha1-2-fucosides” (The Regents of the University of California, priority 2015, dated 2023).
# “Also recorded” adds a separate entry of the source.
# Experiments:
# [1] = tested on: Bifidobacterium longum subsp. infantis (B. infantis) ATCC 15697; assay: Growth of bifidobacteria on mMRS medium with substrate as sole carbohydrate source; assay type: cell-based; settings: 2% (wt/vol) in mMRS, 37° C., anaerobic, OD600
# Experimental: (§1) B. infantis 15697 and B. animalis 27536 were tested for growth in the presence of glucose, HMOS, and LNFP I. Growth assays were performed as previously described.^[35] Briefly, two microliters of each resulting overnight culture was used to inoculate 150 μL of modified MRS medium (mMRS), devoid of glucose and supplemented with 2% (wt/vol) of each sterile-filtered substrate as the sole carbohydrate source. The medium was supplemented with 0.05% (wt/vol) 1-cysteine, and in all the cases the cultures in the wells of the microtiter plates were covered with 30 μL of sterile mineral oil to avoid evaporation. The incubations were carried out at 37° C. in an anaerobic chamber (Coy Laboratory Products). Cell growth was monitored in real time by assessing optical density at 600 nm (OD600) using a BioTek PowerWave 340 plate reader (BioTek, Winoosky, Vt.) every 30 min, preceded by 30 seconds of shaking at variable speed. Two biological replicates and three technical replicates each were performed for every strain. Fermentations were carried out in triplicate.
# [2] = tested on: Bifidobacterium animalis subsp. lactis (B. lactis) ATCC 27536; assay: as above; assay type: cell-based; settings: 2% (wt/vol) in mMRS, 37° C., anaerobic, OD600
# Experimental: as §1
compound,measurement,setting,value
"CC(=O)N[C@H]1[C@H](O[C@H]2[C@@H](O)[C@@H](CO)O[C@@H](O[C@H]3[C@H](O)[C@@H](O)C(O)O[C@@H]3CO)[C@@H]2O)O[C@H](CO)[C@@H](O)[C@@H]1O[C@@H]1O[C@H](CO)[C@H](O)[C@H](O)[C@H]1O[C@@H]1O[C@@H](C)[C@@H](O)[C@@H](O)[C@@H]1O (stereo partly drawn) [LNFP I, Fucα1-2Galβ1-3GlcNAcβ1-3Galβ1-4Glc]",growth compared with growth on glucose,[1],remarkably faster
same,growth with substrate as sole carbon source,[1],grew well; also recorded: selectively consumed as a carbon source
same,growth with substrate as sole carbon source,[2],failed to grow
